Paper PMC12467382, “Synthesis and Bioevaluation of Chalcones as Broad-Spectrum Antiviral Compounds Against Single-Stranded RNA Viruses” (Biomolecules, 2025)
Values joined by “and” are separate entries in the source; they are usually repeats but may differ in a detail not shown here. Equal values may be shown once.

Experiments:
[1] = tested on: PIV5-GFP; experiment: PIV5-GFP viral GFP expression in Hs27 cells by flow cytometry; assay type: cell-based, parainfluenza virus 5; details: for Inhibition of GFP expression, pre-infection treatment only: 10 µM for 24 h before infection, media lacking chalcone after; for Ability to reduce viral GFP expression (Figure 4B screen): 10 µM chalcone before and after infection; for GFP-positive cells, chalcone added at 0 or 6 hpi: 10 µM added at 0 (or 6) hpi, DMSO ~80%; for Effect on number of GFP-positive cells, chalcone added at 18 hpi: 10 µM added at 18 hpi; for GFP-positive cells: 10 µM chalcone 24 h before infection and after, DMSO control ~80-82% GFP+; for % GFP relative to DMSO treated (10 µM): Hs27 cells infected with PIV5-GFP; for GFP-positive cells, virus spread, chalcone added at 0 and 24 hpi: 10 µM added at 0 and 24 hpi, DMSO nearly 60%; for Inhibition of virus spread, chalcone added at 48 and 72 hpi: 10 µM added at 48 and 72 hpi
Method: Parainfluenza virus 5 (PIV5) expressing green fluorescence protein (GFP) was derived from cDNA, grown at 37 °C in Madin–Darby bovine kidney (MDBK) cells and titered on CV-1 (African green monkey kidney) cells with a fibroblast morphology as previously described. MDBK and CV-1 cells were the kind gift of Dr. Robert Lamb (Northwestern University). Cells were infected with virus diluted in DMEM supplemented with 10% bovine serum albumin (BSA) for 1 h or mock infected with media alone. Following incubation, cells were washed with phosphate-buffered saline (PBS) and cultured in DMEM supplemented with 2% heat-inactivated (HI) FBS.
Chalcone treatments were performed in DMEM supplemented with 10% HI FBS at the indicated concentrations and for indicated periods of time. Chalcone stocks were reconstituted in 100% dimethyl sulfoxide (DMSO) at a concentration of 10 mM and were serially diluted to working concentrations in DMSO. DMSO control treatments to test the effect of the vehicle were performed at volumes corresponding to the volume of chalcone added during each experiment (i.e., 1 µL chalcone DMSO solution/1 mL DMEM [10 µM] utilized alongside the DMSO control of 1 µL/1 mL DMEM). For cytotoxicity assays, untreated controls were subtracted from DMSO and chalcone sample values to account for the background signal.
For cytotoxicity assays, cells were stained with propidium iodide (PI) at a dilution of 1:100. Cell viability was determined via flow cytometry using the CytoFLEX (Beckman Coulter, Brea, CA, USA). CytExpert software (Beckman Coulter, version 2.4) was used to analyze independent events. PIV5 infection was monitored using flow cytometry via the FITC channel by analyzing GFP expression of individual cells. ZIKV infection was monitored utilizing Flavivirus group antigen–antibody (D1-4G2-4-15; Novus Biologicals, Littleton, CO, USA) staining for the ZIKV envelope protein. Cells were fixed and permeabilized using eBioscience Intracellular Fixation and Permeabilization Buffer (Invitrogen, Thermo Fisher Scientific, MA, USA) according to the manufacturer’s instructions. Secondary staining was performed using an anti-Alexa Fluor 488 (AF488) antibody (Invitrogen, Thermo Fisher Scientific, MA, USA). OC43 infection was monitored utilizing a primary antibody targeted toward the OC43 nucleocapsid protein (NP, MAB9013, Sigma-Aldrich, St. Louis, MO, USA). Secondary staining was performed using an AF488 antibody. Cells were fixed and permeabilized as previously described. LACV infection was monitored utilizing an anti-LACV Gc 807.31ab antibody kindly provided by Andrew Pekosv. Secondary staining was performed using an AF488 antibody. Cells were fixed and permeabilized as previously described.
To measure the effect of chalcone treatment on PIV5 virus growth, Hs27 cells were infected with PIV5-GFP. This engineered negative sense single-stranded RNA virus expresses GFP, which serves as a genome-encoded protein readout. After entering a cell, PIV5 must first undergo primary transcription to convert its genome into mRNA. As genome replication begins, nascent genomes then become templates for further conversion to mRNA and viral gene expression becomes amplified in a process called secondary transcription. For viral proteins to be detectable in cell culture, this amplification must first take place, making the expression of GFP a direct indicator of whether secondary transcription has successfully occurred. […] As shown in the representative data in Figure 4A, ~82% of DMSO-treated PIV5-GFP infected cells were positive for GFP expression. This was reduced to ~2% GFP-positive cells after treatment with 8o. […] These chalcones were therefore selected for further screening for cytotoxicity.
The GFP IC50 was defined as the concentration of chalcone required to inhibit the GFP expression (as measured via flow cytometry) by 50% when compared to DMSO-treated cells. […]

[2] = tested on: CHO-K1 cells; experiment: cells; assay type: cell-based, Chinese hamster; details: for CHOK1 48 h EC10: Chinese hamster; for EC50: Cricetulus griseus, CHO-K1, 48 h, read-out: CHOK1 48 h EC50
Method: A cell growth assay using the MTS reagent was conducted to assess the general toxicity of each chalcone compound. Briefly, cell growth was assayed in sterile 96-well microtiter plates (Costar 3599, Corning Inc., Corning, NY, USA) in the presence of each chalcone. Experiments were conducted in triplicate. In a typical experiment, there are two plates. The first is the control plate, which allows one to assess the starting cell population on the day of drug addition (Day 0). The second plate is the test plate where cells are plated and tested with different drug concentrations on Day 0. For example, either CHO cells or Hs27 cells were plated in a 200 µL volume at 1000 cells/well on both the control and test plates and incubated overnight to allow the cells to adhere. On Day 0, 1 μL of PBS was added to the control plate wells so that their total volume was 201 μL. MTS reagent (Promega Cell Titer 96 Aqueous non-radioactive cell proliferation reagent, Promega, Madison, WI, USA) was added (20 μL) to each well on the control plate, and that plate was incubated for 4 h in a 5% CO2 atmosphere at 37 °C and then read on the plate reader.
On Day 0, 1 μL of a 200× stock solution of each chalcone was added to the respected well on the test plate, and each condition was tested in triplicate. Drug solutions were prepared in advance in 100% DMSO and dosed so that the final DMSO concentration was 0.5%. For example, 1 μL of chalcone solution was added to the cells plated in each well in 200 μL of media. Of note, the respective chalcone addition occurred after an initial overnight incubation of each cell line in each well to reach Day 0 (the drugging day). After the chalcone was added, the cells were incubated in 5% CO2 for 48 h at 37 °C. After 48 h, the MTS reagent (Promega, Madison, WI, USA) was added (20 μL), and the test plates were incubated for an additional 4 h, and then, absorbance at 490 nm was measured on a BioTek Synergy MX plate reader. […] IC50 values were determined from the corresponding plot of relative absorbance at 490 nm vs. the drug concentration.
For highly colored materials like the chalcones, it is important to consider the contribution of the compound’s own absorbance to the MTS assay. To correct for the absorbance contribution of the chalcone itself, we measured each chalcone’s absorbance (Chalcone Abs) at 490 nm at the respective concentration (e.g., 10 µM) and subtracted the absorbance of the media background (blank Abs). This net value was then subtracted out of the Day 2 absorbance value to provide the % relative growth via the following equation:(1) % Relative Growth = (Day 2 Abs−Day 2 blank Abs)−Chalcone Abs−blank Abs−(Day 0 Abs−Day 0 blank Abs)/(Day 2 Control Abs −Day 2 blank Abs)−(Day 0 Abs−Day 0 blank Abs) ×100%
With the chalcones in hand, we then evaluated their growth-inhibition properties in Chinese hamster ovary (CHO-K1) cells and human Hs27 fibroblast cells. […] The results are shown in Table 2 along with a SAR summary of our findings in the host Hs27 cells.

[3] = tested on: Vero cells; experiment: Propidium iodide (PI) staining cytotoxicity in Vero cells by flow cytometry; assay type: cell-based; details: 24 h, concentration giving 10% PI+ cells
Method: We also extended the analysis of chalcone anti-viral effects to the widely used Vero cell line. […] The quotients of these values were determined to compare the compounds directly while accounting for both cytotoxicity and efficacy against PIV5.

[4] = low MOI (0.1 in Figure 7), read at 96 hpi

Compound	Inhibition of GFP expression, pre-infection treatment only ([1]; MOI 10, 24 hpi)	CHOK1 48 h EC10 [2] [µM]	EC50 [2] [µM]	Ability to reduce viral GFP expression (Figure 4B screen) ([1]; MOI 10, 24 hpi)	PI MTC [3] [µM]	also measured
COc1ccccc1/C=C/C(=O)c1ccccc1O [Chalcone 8a]	no significant inhibition of GFP expression	9.3 ± 0.6	25.5 ± 2.7	–	–	GFP-positive cells regardless of time of addition ([1]; 10 µM added at 0, 6 or 18 hpi, MOI 10, read at 42 hpi): ~ 80%; Inhibition of viral gene expression, PIV5 ([1]; 10 µM, Hs27 cells): did not inhibit viral gene expression; GFP-positive cells with increasing concentration ([1]; 2.5, 5, 7.5 or 10 µM before and after infection, MOI 10, 24 hpi): ~ 80%; Effect on number of GFP-positive cells, virus spread, all times of addition ([1]; low MOI (0.1 in Figure 7), 10 µM added at 0, 24, 48 or 72 hpi, read at 96 hpi): modestly reduced
COc1ccc(Br)cc1/C=C/C(=O)c1c(O)cccc1OC [Chalcone 8f]	–	2.5 ± 0.1	6.1 ± 0.8	most notable performance	6.8	–
COc1ccc(Br)cc1/C=C/C(=O)c1c(O)cccc1OCc1ccccc1 [Chalcone 8l]	–	5.2 ± 0.3	8.1 ± 1	most notable performance	4.0	–
CCOc1ccc(Br)cc1/C=C/C(=O)c1c(O)cccc1OCc1ccccc1 [Chalcone 8o]	no significant inhibition of GFP expression	7.0 ± 0.4	9.9 ± 0.7	most notable performance	2.5	GFP-positive cells, chalcone added at 0 or 6 hpi ([1]; MOI 10, read at 42 hpi): ~25%; Effect on number of GFP-positive cells, chalcone added at 18 hpi ([1]; MOI 10, read at 42 hpi): no significant effect; GFP-positive cells ([1]; MOI 10, 24 hpi): ~ 2% and 2.10% and < 10%; % GFP relative to DMSO treated (10 µM) ([1]; 10 µM): 14.6%; GFP-positive cells, virus spread, chalcone added at 0 and 24 hpi [1, 4]: less than 10%; Inhibition of virus spread, chalcone added at 48 and 72 hpi [1, 4]: inhibition was not seen
CCOc1ccc(Cl)cc1/C=C/C(=O)c1c(O)cccc1OCc1ccccc1 [Chalcone 8p]	no significant inhibition of GFP expression	8.2 ± 0.3	25.8 ± 1.1	most notable performance	3.2	GFP-positive cells, chalcone added at 0 or 6 hpi ([1]; MOI 10, read at 42 hpi): ~25%; Effect on number of GFP-positive cells, chalcone added at 18 hpi ([1]; MOI 10, read at 42 hpi): no significant effect; GFP-positive cells ([1]; MOI 10, 24 hpi): < 10%; GFP-positive cells, virus spread, chalcone added at 0 and 24 hpi [1, 4]: less than 10%; Inhibition of virus spread, chalcone added at 48 and 72 hpi [1, 4]: inhibition was not seen
COc1ccc(Br)cc1/C=C/C(=O)c1c(O)cccc1OCCC(C)C [Chalcone 8s, (2E)-3-(5-Bromo-2-Methoxy-Phenyl)-1-[2-Hydroxy-6-(3-Methyl-Butoxy)-Phenyl]-Propenone]	–	5.4 ± 0.3	8.6 ± 0.3	most notable performance	–	–
CCOc1ccc(Br)cc1/C=C/C(=O)c1c(O)cccc1OCc1ccc(-c2ccccc2)cc1 [Chalcone 8v, (2E)-1-[2-(Biphenyl-4-Ylmethoxy)-6-Hydroxy-Phenyl]3-(5-Bromo-2-Ethoxy-Phenyl)-Propenone]	–	3.7 ± 0.3	> 50	–	–	% GFP relative to DMSO treated (10 µM) ([1]; 10 µM): 63.3%
COc1ccc(Br)cc1/C=C/C(=O)c1c(O)cccc1OCc1ccc(-c2ccccc2)cc1 [Chalcone 8w, (2E)-1-[2-(Biphenyl-4-Ylmethoxy)-6-Hydroxy-Phenyl]3-(5-Bromo-2-Methoxy-Phenyl)-Propenone]	–	6.8 ± 0.3	10.1 ± 1	most notable performance	–	–
COc1ccc(O)cc1/C=C/C(=O)c1c(O)cccc1OCc1ccccc1 [Chalcone 8x, (2E)-1-(2-Benzloxy-6-Hydroxy-Phenyl)-5-(5-Hydroxy-2-Methoxy-Phenyl)-Propenone]	–	3.8 ± 0.4	6.3 ± 0.3	most notable performance	–	–
COc1cc(/C=C/C(=O)c2c(O)cccc2OCc2ccccc2)cc(OC)c1OC [Chalcone 8z, (2E)-1-(2-Benzloxy-6-Hydroxy-Phenyl)-3-(3,4,5-Trimethoxy-Phenyl)-Propenone]	–	3.8 ± 0.4	5.8 ± 0.4	most notable performance	–	–
